Publication PMC11436758, “Computer-aided drug design to generate a unique antibiotic family” (Nature Communications, 2024)
Where “and” joins values, the source holds several entries; their conditions need not be identical. Equal values may be shown once.

Legend:
[1] = system: 102 ATCC strains and clinical isolates of Staphylococcus, Streptomyces, and Enterococcus; experiment: MIC panel summary over all strains; type: cell-based; conditions: of the seven strains above 2 μg/mL
Description: We also sought to determine if DNM0547 was bacteriostatic or bactericidal. Time kill experiments were carried out using increasing doses of DNM0547 against two different strains of MRSA.
The medium employed for the assay was Mueller Hinton II Broth (MHB II; Becton-Dickinson, Sparks, MD, USA). Agar plates used for the organisms were trypticase soy agar plus 5% sheep blood (BD; Sparks, MD, USA). MIC assay plates were prepared using the CLSI broth microdilution procedure. Automated liquid handlers (Multidrop 384, Biomek 2000 and Biomek FX) were used to conduct serial dilutions and liquid transfers. A standardized inoculum of each organism was prepared per CLSI methods. Suspensions were prepared to equal a 0.5 McFarland standard, followed by a 1:20 dilution in test media. The inocula were dispensed into sterile reservoirs divided by length (Beckman Colter) and the Biomek 2000 was used to inoculate the plates. Daughter plates were placed on the Biomek 2000 work surface in reverse orientation so that inoculation took place from low to high drug concentration. The Biomek 2000 delivered 10 μL of the diluted suspension into each well. These inoculations yielded a final cell concentration in the daughter plates of ~5 × 10^5 colony-forming units/mL in each well. The wells of the daughter plates ultimately contained 185 μL of broth, 5 μL of drug solution, and 10 μL of bacterial inoculum. Plates were covered with a sterile lid on the top plate, placed in plastic bags, and incubated at 35 °C for ~18 h. The microplates were viewed from the bottom using a plate viewer and the MIC was read. The MIC was recorded as the lowest concentration of drug that inhibited visible growth of the organism.

MRSA (ATCC 33591) = experiment: Mouse cellulitis model of infection, topical treatment; type: in vivo, SKH1 mice; conditions: for Wound size (mm2), Mean / Wound size (mm2): Fig 2d
Description: SKH1 mice from Charles River were used and male and female mice were utilized, sample size prevented disaggregation of data by sex. Mice were housed with a 12 h light and dark cycle at 21 °C in relative humidity of 40–50%. Investigators were blinded to group allocation, data collection, and data analysis. The formulation for delivery of DNM0547 was Glaxal base (WellSpring Pharmaceutical Canada Corp., Oakville, Canada). Formulation was performed by dissolving compound in Glaxal base to give final concentrations of 2% DNM0547 compound (w/v). MRSA (ATCC #33591) were grown to mid-log phase, concentrated by centrifugation and suspended in sterile PBS at a stock concentration of 2 × 10^11 CFU/mL.
Four week old mice were anesthetized and injected intradermally with 1 × 10^8 CFU/mouse. 4 h after injection, mice were treated with 50 μl 2% DNM0547 cream, or excipient alone. Lesion dimensions were recorded daily for seven days. Food and water were given ad libidum. On day seven, mice were euthanized and the lesion area aseptically removed to 3 mL sterile PBS. The samples were homogenized and serial dilutions were plated on blood agar and incubated at 37 °C to determine CFU. The mouse model of skin infection was performed and evaluated with Washington Biotechnology Inc (Baltimore, MD, USA).

AcpS = AcpS (Escherichia coli, UniProt P24224); experiment: AcpS activity against increasing concentration of CoA with and without DNM0547 (mode of inhibition); type: biochemical; conditions: Suppl Fig 2, [AcpS] 5 nM; for V(+Inhibitor): replicates
Chain of AcpS (P24224 2-126): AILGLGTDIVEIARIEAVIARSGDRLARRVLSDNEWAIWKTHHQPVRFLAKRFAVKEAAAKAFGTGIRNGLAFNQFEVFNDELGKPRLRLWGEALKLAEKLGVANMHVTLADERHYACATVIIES
Excerpt: AcpS was chosen as a potential new antibiotic target for several important reasons beyond its high level of conservation across bacterial species. […] We undertook a more in-depth characterization of AcpS inhibition using DNM0547 as the test compound for this antibiotic family. The computer-aided drug design strategy used positions DNM compounds in the active site of AcpS. If DNM0547 is binding to the active site of AcpS competitive inhibition against an AcpS substrate would be predicted.
The acpS gene was amplified from S. aureus and E. coli genomic DNA and inserted into a pET23b vector using standard recombinant DNA methodology such that the protein product would result in addition of a C-terminal 6x-His tag in frame with the AcpS open reading frames. The DNA sequences inserted in the vector were sequenced and found to be identical to the known E. coli and S. aureus acpS open reading frames. Recombinant His-Tagged AcpS expression was induced by IPTG addition and overnight culture. Cell lysate was obtained by sequential aspiration through 16, 18 and 21 G needles in a buffer of 50 mM Tris-HCl (pH 8.5), 10 mM MgCl2, 2 mM DTT, 5% glycerol, and further adjusted to pH 8.1 with MES. […] In a typical AcpS enzyme activity assay, 57 µM [^3H]acetyl-CoA, 2 µg apo-ACP, 10 mM MgCl2, 5 mM DTT, 50 mM Na phosphate (pH 7.0), and AcpS in a final volume of 10 µL were incubated at room temperature in a 1.5 mL microcentrifuge tube. At 5, 10, 15, and 20 min 2 µL of reaction were added to 750 µl 10% TCA on ice. Bovine serum albumin (BSA; 20 µl of a 25 mg/mL solution) was then added to facilitate precipitation of radiolabeled protein. The samples were centrifuged at 12,000 × g for 5 min. Supernatants were removed, and the pellets were rinsed twice with 750 µl of 10% trichloroacetic acid. Pellets were resuspended in 50 µl of formic acid and transferred to scintillation vials. 2 mL of scintillation fluid was added, and the amount of [^3H]-labeled holo-ACP formed was quantified by liquid scintillation counting. The enzymatic reaction proceeded in a linear manner depending on time (10–40 min) and enzyme concentration (1–5 nM). Routinely, each data point was determined at least by triplicate.
Supplementary Figure 2. […] AcpS enzyme activity was […]
determined versus using purified AcpS and increasing concentrations of CoA in the presence and absence of 8 µM DNM0547. Data are the mean values +/ - SD of three separate experiments performed in triplicate from three separate enzyme preparation. GraphPad Prism was used to determine V max and Km values.

[2] = 2% cream for 7 days, versus vehicle control

Structure (SMILES): CC(C)c1cc(Cl)ccc1-c1cc(-c2nnn[nH]2)c(-c2ccc(Cl)cc2C(C)C)s1 [DNM0547]
- number of strains with MIC 4 μg/mL [1]: four
- number of strains with MIC 8 μg/mL [1]: two
- number of strains with MIC 32 μg/mL [1]: one
- reduction in wound size (MRSA (ATCC 33591); [2]): 4 fold
- reduction of bacterial load (MRSA (ATCC 33591); [2]): > 98%
- CFUs (MRSA (ATCC 33591); Fig 2e, individual animals): 66 CFUs and 3900 CFUs and 0 CFUs (2×) and 57 CFUs
- Wound size (mm2), Mean (MRSA (ATCC 33591); Day 1): 14.643 mm2
- Wound size (mm2), Mean (MRSA (ATCC 33591); Day 2): 24.6313 mm2
- Wound size (mm2), Mean (MRSA (ATCC 33591); Day 3): 14.2828 mm2
- Wound size (mm2), Mean (MRSA (ATCC 33591); Day 4): 14.2975 mm2
- Wound size (mm2), Mean (MRSA (ATCC 33591); Day 5): 12.6205 mm2
- Wound size (mm2), Mean (MRSA (ATCC 33591); Day 6): 11.8387 mm2
- Wound size (mm2), Mean (MRSA (ATCC 33591); Day 7): 14.2246 mm2
- Wound size (mm2) (MRSA (ATCC 33591); individual animals, Day 1): 12.5374 mm2 and 14.3799 mm2 and 14.54 mm2 and 15.8884 mm2 and 15.87 mm2
- Wound size (mm2) (MRSA (ATCC 33591); individual animals, Day 2): 25.0932 mm2 and 30.8908 mm2 and 21.02 mm2 and 14.3128 mm2 and 31.84 mm2
- Wound size (mm2) (MRSA (ATCC 33591); individual animals, Day 3): 14.5538 mm2 and 21.2799 mm2 and 9.59 mm2 and 10.8726 mm2 and 15.12 mm2
- Wound size (mm2) (MRSA (ATCC 33591); individual animals, Day 4): 15.4052 mm2 and 19.652 mm2 and 13.70 mm2 and 11.5756 mm2 and 11.16 mm2
- Wound size (mm2) (MRSA (ATCC 33591); individual animals, Day 5): 9.8797 mm2 and 13.6551 mm2 and 8.00 mm2 and 10.1736 mm2 and 21.40 mm2
- Wound size (mm2) (MRSA (ATCC 33591); individual animals, Day 6): 12.7154 mm2 and 14.2046 mm2 and 11.72 mm2 and 7.547 mm2 and 13.01 mm2
- Wound size (mm2) (MRSA (ATCC 33591); individual animals, Day 7): 15.755 mm2 and 18.619 mm2 and 16.44 mm2 and 5.851 mm2 and 14.46 mm2
- V(+Inhibitor) Mean (AcpS; Acetyl CoA 0.06 mM): 20.55 nM/min
- V(+Inhibitor) (AcpS; Acetyl CoA 0.06 mM): 19.96 nM/min and 23.46 nM/min and 18.23 nM/min
- V(+Inhibitor) Mean (AcpS; Acetyl CoA 0.24 mM): 101.48 nM/min
- V(+Inhibitor) (AcpS; Acetyl CoA 0.24 mM): 97.72 nM/min and 105.12 nM/min and 101.61 nM/min
- V(+Inhibitor) Mean (AcpS; Acetyl CoA 0.48 mM): 125.64 nM/min
- V(+Inhibitor) (AcpS; Acetyl CoA 0.48 mM): 122.32 nM/min and 124.81 nM/min and 129.79 nM/min
- V(+Inhibitor) Mean (AcpS; Acetyl CoA […]): 57.60 nM/min
